Measured values taken from patent publication US20110190263A1, “COMPOUNDS AND COMPOSITIONS AS MODULATORS OF GPR119 ACTIVITY” (IRM LLC, priority 2008, published 2011).
pEC50: −log10 of the molar value.

Target: T1, human GPR119 (Homo sapiens, UniProt Q8TDV5)
T1 construct: expressed in transfected cells
T1 sequence (Q8TDV5 1-335): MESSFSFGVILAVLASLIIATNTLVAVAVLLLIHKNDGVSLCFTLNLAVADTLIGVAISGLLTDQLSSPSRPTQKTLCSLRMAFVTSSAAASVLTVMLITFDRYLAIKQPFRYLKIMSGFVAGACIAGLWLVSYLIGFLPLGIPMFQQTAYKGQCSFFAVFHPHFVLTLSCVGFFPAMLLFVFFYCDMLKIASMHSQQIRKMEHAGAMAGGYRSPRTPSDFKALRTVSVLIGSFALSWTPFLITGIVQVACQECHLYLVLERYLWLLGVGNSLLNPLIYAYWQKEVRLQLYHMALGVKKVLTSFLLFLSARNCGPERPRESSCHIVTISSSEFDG
Test: Cyclic AMP assay in stable cell line (Flp-In-CHO-hGPR119, HTRF)
Type: cell-based
Conditions: Flp-In-CHO-hGPR119 cells, intracellular cAMP by HTRF, 1 mM IBMX, 37° C. for 30 minutes
Description: Flp-In-CHO cells (Invitrogen, Cat.# R758-07) are maintained in Ham's F12 medium supplemented with 10% fetal bovine serum, 1% antibiotic mixture and 2 mM L-glutamine. The cells are transfected with a DNA mixture containing human GPR119 in pcDNA5/FRT vector and the pOG44 vector (1:9) using Fugene6 (Roche), according to the manufacturer's instruction. After 48 hours, the medium is changed to medium supplemented with 400 μg/ml hygromycin B to initiate the selection of stably transfected cells.
To test the activity of compounds of the invention, Flp-In-CHO-hGPR119 cells are harvested and resuspended in DMEM plus 3% lipid-depleted fetal bovine serum. Forth μl of cells are plated in 384 well plates at a density of 15,000 cells/well. IBMX (3-isobutyl-1-methyl-xanthine) is added to the cells to a final concentration of 1 mM, followed by the addition of 500 nl of the compound to be tested. The cells are incubated at 37° C. for 30 minutes. Equal volume (20 μl) of the HTRF reagents, anti-cAMP-Cryptate and cAMP-XL665, are added to the cells. The plates are incubated at room temperature for 1 hour and read on a HTRF reader according to the manufacturer's instruction.

pEC50	Structure (SMILES)
6.76	C[C@H]1CN(C(=O)OC2(C)CC2)CC[C@H]1COC1CN(c2ncc3c(n2)CCN(S(C)(=O)=O)C3)C1 [Example J2, 1-methylcyclopropyl(3R,4R)-4-{[(1-{6-methanesulfonyl-5H,6H,7H,8H-pyrido[4,3-d]pyrimidin-2-yl}azetidin-3-yl)oxy]methyl}-3-methylpiperidine-1-carboxylate]
8.22	CC(C)c1noc(N2CCC(CCCNc3ncc4c(n3)CCN(S(C)(=O)=O)C4)CC2)n1 [Example D4, N-(3-(1-(3-isopropyl-1,2,4-oxadiazol-5-yl)piperidin-4-yl)propyl)-6-(methylsulfonyl)-5,6,7,8-tetrahydropyrido[4,3-d]pyrimidin-2-amine]
6.77	CC(C)c1noc(N2CCC(COC3CN(c4ncc5c(n4)CCN(S(C)(=O)=O)C5)C3)CC2)n1 [Example G11]
5.43	CC(C)OC(=O)N1CCC(Oc2nccc3c2CCN(S(C)(=O)=O)C3)CC1 [Example A4, isopropyl 4-(6-(methylsulfonyl)-5,6,7,8-tetrahydro-2,6-naphthyridin-1-yloxy)piperidine-1-carboxylate]
8.00	CN(CCCC1CCN(C(=O)OC2(C)CC2)CC1)c1ncc2c(n1)CCN(S(C)(=O)=O)C2 [Example D8, 1-methylcyclopropyl 4-(3-(methyl(6-(methylsulfonyl)-5,6,7,8-tetrahydropyrido[4,3-d]pyrimidin-2-yl)amino)propyl)piperidine-1-carboxylate]
6.72	CC(C)OC(=O)N1CCC(CCCCOc2nccc3c2CCN(S(C)(=O)=O)C3)CC1 [Example A9, isopropyl 4-(4-(6-(methylsulfonyl)-5,6,7,8-tetrahydro-2,6-naphthyridin-1-yloxy)butyl)piperidine-1-carboxylate]
8.70	CC1(OC(=O)N2CCC(CCCOc3ncc4c(n3)CCN(S(C)(=O)=O)C4)CC2)CC1 [Example D2, 1-Methylcyclopropyl 4-(3-(6-(methylsulfonyl)-5,6,7,8-tetrahydropyrido[4,3-d]pyrimidin-2-yloxy)propyl)piperidine-1-carboxylate]
5.99	CS(=O)(=O)N1CCc2nc(OCCCc3ccc(-n4cccn4)nc3)ncc2C1 [Example G16, 5-[3-({6-methanesulfonyl-5H,6H,7H,8H-pyrido[4,3-d]pyrimidin-2-yl}oxy)propyl]-2-(1H-pyrazol-1-yl)pyridine]
7.55	CC1(OC(=O)N2CCC(COC3CN(c4ncc5c(n4)CCN(S(C)(=O)=O)C5)C3)CC2)CC1 [Example G6]
6.86	CC(C)OC(=O)N1CCC(CCCCOC2=NCCC3CN(S(C)(=O)=O)CCC23)CC1 (centres unmarked) [Example A8, isopropyl 4-(4-(6-(methylsulfonyl)-3,4,4a,5,6,7,8,8a-octahydro-2,6-naphthyridin-1-yloxy)butyl)piperidine-1-carboxylate]
6.67	CCc1cnc(N2CCC(OCCOc3ncc4c(n3)CCN(S(C)(=O)=O)C4)CC2)nc1 [Example E1, 2-(2-(1-(5-ethylpyrimidin-2-yl)piperidin-4-yloxy)ethoxy)-6-(methylsulfonyl)-5,6,7,8-tetrahydropyrido[4,3-d]pyrimidine]
6.91	CC1(OC(=O)N2CCC(Cc3cn(-c4ncc5c(n4)CCN(S(C)(=O)=O)C5)cn3)CC2)CC1 [Example G18, 1-methylcyclopropyl 4-[(1-{6-methanesulfonyl-5H,6H,7H,8H-pyrido[4,3-d]pyrimidin-2-yl}-1H-imidazol-4-yl)methyl]piperidine-1-carboxylate]
5.36	CC(C)OC(=O)N1CCC(N2CCC3CN(S(C)(=O)=O)CCC3C2=O)CC1 (centres unmarked) [Example A5, isopropyl 4-(6-(methylsulfonyl)-1-oxooctahydro-2,6-naphthyridin-2(1H)-yl)piperidine-1-carboxylate]
6.74	CCc1cnc(N2CCC(C(C)OC3CN(c4ncc5c(n4)CCN(S(C)(=O)=O)C5)C3)CC2)nc1 (racemic) [Example H1, (±)-2-(3-(1-(1-(5-Ethylpyrimidin-2-yl)piperidin-4-yl)ethoxy)azetidin-1-yl)-6-(methylsulfonyl)-5,6,7,8-tetrahydropyrido[4,3-d]pyrimidine]
6.18	CCc1cnc(N2CCC(COCC3CN(c4ncc5c(n4)CCN(S(C)(=O)=O)C5)C3)CC2)nc1 [Example G5]
8.30	CCc1cnc(N2CCC(CCCOc3ncc4c(n3)CCN(S(=O)(=O)CCCO)C4)CC2)nc1 [Example D9, 3-(2-{3-[1-(5-ethylpyrimidin-2-yl)piperidin-4-yl]propoxy}-5H,6H,7H,8H-pyrido[4,3-d]pyrimidine-6-sulfonyl)propan-1-ol]
6.50	CCc1cnc(N2CCC(COC3CCN(c4ncc5c(n4)CCN(S(C)(=O)=O)C5)CC3)CC2)nc1 [Example G9]
8.15	CCc1cnc(N2CCC(CCCNc3ncc4c(n3)CCN(S(C)(=O)=O)C4)CC2)nc1 [Example D5, N-(3-(1-(5-Ethylpyrimidin-2-yl)piperidin-4-yl)propyl)-6-(methylsulfonyl)-5,6,7,8-tetrahydropyrido[4,3-d]pyrimidin-2-amine]
6.29	CC1(OC(=O)N2CCC(CCOCc3ncc4c(n3)CCN(S(C)(=O)=O)C4)CC2)CC1 [Example C1, 1-Methylcyclopropyl 4-(2-((6-(methylsulfonyl)-5,6,7,8-tetrahydropyrido[4,3-d]pyrimidin-2-yl)methoxy)ethyl)piperidine-1-carboxylate]
7.03	CC(C)OC(=O)N1CCC(CCCCn2ccc3c(c2=O)CCN(S(C)(=O)=O)C3)CC1 [Example A7, isopropyl 4-(4-(6-(methylsulfonyl)-1-oxo-5,6,7,8-tetrahydro-2,6-naphthyridin-2(1H)-yl)butyl)piperidine-1-carboxylate]
7.66	CC(C)(C)OC(=O)N1CC(OCC2CCN(c3ncc4c(n3)CCN(S(C)(=O)=O)C4)CC2)C1 [Example G7]
8.05	CCc1cnc(N2CCC(COC3CN(c4ncc5c(n4)CCN(S(C)(=O)=O)C5)C3)CC2)nc1 [Example G1, 2-(3-((1-(5-Ethylpyrimidin-2-yl)piperidin-4-yl)methoxy)azetidin-1-yl)-6-(methylsulfonyl)-5,6,7,8-tetrahydropyrido[4,3-d]pyrimidine]
6.44	CCc1cnc(-c2ccc(CCCOc3ncc4c(n3)CCN(S(C)(=O)=O)C4)cc2)nc1 [Example G15, 5-ethyl-2-{4-[3-({6-methanesulfonyl-5H,6H,7H,8H-pyrido[4,3-d]pyrimidin-2-yl}oxy)propyl]phenyl}pyrimidine]
7.31	CCc1cnc(N2CCc3c(cccc3OC3CN(c4ncc5c(n4)CCN(S(C)(=O)=O)C5)C3)C2)nc1 [Example I1, 2-(3-(2-(5-Ethylpyrimidin-2-yl)-1,2,3,4-tetrahydroisoquinolin-5-yloxy)azetidin-1-yl)-6-(methylsulfonyl)-5,6,7,8-tetrahydropyrido[4,3-d]pyrimidine]
8.10	CC1(OC(=O)N2CCC(CCCNc3ncc4c(n3)CCN(S(C)(=O)=O)C4)CC2)CC1 [Example D7, 1-methylcyclopropyl 4-(3-(6-(methylsulfonyl)-5,6,7,8-tetrahydropyrido[4,3-d]pyrimidin-2-ylamino)propyl)piperidine-1-carboxylate]
7.57	CCc1cnc(N2CCC(CCCOc3ccc4c(n3)CCN(S(C)(=O)=O)C4)CC2)nc1 [Example F1, 2-(3-(1-(5-Ethylpyrimidin-2-yl)piperidin-4-yl)propoxy)-6-(methylsulfonyl)-5,6,7,8-tetrahydro-1,6-naphthyridine]
6.15	CO[C@H]1CN(C(=O)OC2(C)CC2)CC[C@H]1COC1CN(c2ncc3c(n2)CCN(S(C)(=O)=O)C3)C1 (racemic) [Example J1, (±)-(3R,45)-1-Methylcyclopropyl 3-methoxy-4-((1-(6-(methylsulfonyl)-5,6,7,8-tetrahydropyrido[4,3-d]pyrimidin-2-yl)azetidin-3-yloxy)methyl)piperidine-1-carboxylate]
8.40	CCc1cnc(N2CCC(CCCOc3ncc4c(n3)CCN(S(C)(=O)=O)C4)CC2)nc1 [Example D3, 2-(3-(1-(5-Ethylpyrimidin-2-yl)piperidin-4-yl)propoxy)-6-(methylsulfonyl)-5,6,7,8-tetrahydropyrido[4,3-d]pyrimidine]

Structure (SMILES)	pEC50
CS(=O)(=O)N1CCc2nc(CNCCc3cccc(Br)c3)ncc2C1 [Example B3, 2-(3-bromophenyl)-N-((6-(methylsulfonyl)-5,6,7,8-tetrahydropyrido[4,3-d]pyrimidin-2-yl)methyl)ethanamine]	5.61
